From ChEMBL document CHEMBL1143693, “Cancer chemopreventive effects of cycloartane-type and related triterpenoids in in vitro and in vivo models” (J Nat Prod, 2007)

Experiments:
[1] = tested on: Human gammaherpesvirus 4; test: Inhibition of TPA-induced Epstein-Barr virus early antigen activation in Raji cells after 48 hrs; type: functional, organism-based; conditions: human gammaherpesvirus 4, Raji
[2] = tested on: Raji; test: Cell viability of Raji cells at 320 nM; type: functional, Homo sapiens
[3] = tested on: Human gammaherpesvirus 4; test: Inhibition of TPA-induced Epstein-Barr virus early antigen activation assessed as EBV-EA induction in Raji cells at 0.32 nM after 48 hrs relative to TPA; values are per cent of control; conditions: human gammaherpesvirus 4, Raji
[4] = Scavenging activity against NO generation in human Chang liver cells assessed as inhibition of NOR1-activation at 350 nM relative to NOR1; type: functional
[5] = tested on: Human gammaherpesvirus 4; test: Inhibition of TPA-induced Epstein-Barr virus early antigen activation assessed as EBV-EA induction in Raji cells at 32 nM after 48 hrs relative to TPA; values are per cent of control; conditions: human gammaherpesvirus 4, Raji
[6] = tested on: Human gammaherpesvirus 4; test: Inhibition of TPA-induced Epstein-Barr virus early antigen activation assessed as EBV-EA induction in Raji cells at 320 nM after 48 hrs relative to TPA; values are per cent of control; conditions: human gammaherpesvirus 4, Raji
[7] = tested on: Human gammaherpesvirus 4; test: Inhibition of TPA-induced Epstein-Barr virus early antigen activation assessed as EBV-EA induction in Raji cells at 3.2 nM after 48 hrs relative to TPA; values are per cent of control; conditions: human gammaherpesvirus 4, Raji

| SMILES | IC50 [1] [nM] | Activity [2] [%] | level, % of control at 0.00032 µM [3] [%] | Activity [4] | level, % of control at 0.032 µM [5] [%] | level, % of control at 0.32 µM [6] [%] | level, % of control at 0.0032 µM [7] [%] |
| --- | --- | --- | --- | --- | --- | --- | --- |
| C[C@H](C/C=C/C(C)(C)O)[C@H]1CC[C@@]2(C)[C@@H]3CC[C@H]4C(C)(C)C(=O)CC[C@@]45C[C@@]35CC[C@]12C | 8.6 | 70 | 90.1 | 1.9 | 20 | 0 | 67.2 |
| C=C(CC[C@@H](C)[C@H]1CC[C@@]2(C)[C@@H]3CC[C@H]4C(C)(C)C(=O)CC[C@@]45C[C@@]35CC[C@]12C)C(C)C | 9.2 | 70 | 96.1 | 1.9 | 26.4 | 3.1 | 73.5 |
| C=C(CC[C@@H](C)[C@H]1CC[C@@]2(C)[C@@H]3CC[C@H]4C[C@@H](OC(C)=O)CC[C@@]45C[C@@]35CC[C@]12C)C(C)C | 10 | 70 | 96.3 | 1.5 | 31.4 | 0 | 73.1 |
| CC(C)=CCC[C@@H](C)[C@H]1CC[C@@]2(C)[C@@H]3CC[C@H]4C(C)(C)[C@@H](O)CC[C@@]45C[C@@]35CC[C@]12C [CYCLOARTENOL] | 8.8 | 70 | 93.5 | 1.6 | 25.8 | 0 | 69.9 |
| CC(C)C(=O)CC[C@@H](C)[C@H]1CC[C@@]2(C)[C@@H]3CC[C@H]4C(C)(C)[C@@H](O)CC[C@@]45C[C@@]35CC[C@]12C | 8.1 | 70 | 90.5 | 2 | 19.8 | 0 | 62.7 |
| CC(=O)O[C@H]1CC[C@]23C[C@]24CC[C@]2(C)[C@@H]([C@H](C)CCC=C(C)C)CC[C@@]2(C)[C@@H]4CC[C@H]3C1(C)C [CYCLOARTENOL ACETATE] | 10.1 | 70 | 96.9 | 1.8 | 32.3 | 0 | 73.1 |
| C=C(CC[C@@H](C)[C@H]1CC[C@@]2(C)[C@@H]3CC[C@H]4[C@H](C)[C@@H](OC(=O)/C=C/c5ccc(O)c(OC)c5)CC[C@@]45C[C@@]35CC[C@]12C)C(C)C [CYCLOEUCALENOL FERULATE] | 15.5 | 70 | 100 | 1.5 | 53.2 | 14.2 | 81.5 |
| COc1cc(/C=C/C(=O)CC(=O)/C=C/c2ccc(O)c(OC)c2)ccc1O [CURCUMIN] | 10.2 | 60 | 100 | – | 22.8 | 0 | 81.7 |
| CC(C)=CCC[C@@H](C)[C@H]1CC[C@@]2(C)[C@@H]3CC[C@H]4C(C)(C)[C@H](O)CC[C@@]45C[C@@]35CC[C@]12C | 9.2 | 70 | 93.7 | 1.8 | 29.7 | 0 | 70.3 |
| C=C(CC[C@@H](C)[C@H]1CC[C@@]2(C)[C@@H]3CC[C@H]4[C@H](C)[C@H](O)CC[C@@]45C[C@@]35CC[C@]12C)C(C)C | 9.4 | 70 | 95.9 | 1.6 | 30.5 | 0 | 73.1 |
| C=C(CC[C@@H](C)[C@H]1CC[C@@]2(C)[C@@H]3CC[C@H]4[C@@H](C)C(=O)CC[C@@]45C[C@@]35CC[C@]12C)C(C)C | 10.2 | 70 | 95.1 | 1.5 | 32.7 | 0 | 73.6 |
| CC1=C(/C=C/C(C)=C/C=C/C(C)=C/C=C/C=C(C)/C=C/C=C(C)/C=C/C2=C(C)CCCC2(C)C)C(C)(C)CCC1 [BETA CAROTENE] | 12.7 | 70 | 100 | – | 34.2 | 8.6 | 82.1 |
| CC1=C(/C=C/C(C)=C/C=C/C(C)=C/C(=O)O)C(C)(C)CCC1 [TRETINOIN] | 15.4 | 60 | 100 | – | 49.3 | 21.6 | 76.3 |
| C=C(CC[C@@H](C)[C@H]1CC[C@@]2(C)[C@@H]3CC[C@H]4CC(=O)CC[C@@]45C[C@@]35CC[C@]12C)C(C)C | 10.2 | 70 | 95.6 | 1.5 | 33.2 | 0 | 73.8 |
| CC1(C)[C@@H](O[C@H]2O[C@H](C(=O)O)[C@@H](O)[C@H](O)[C@H]2O[C@@H]2O[C@H](C(=O)O)[C@@H](O)[C@H](O)[C@H]2O)CC[C@]2(C)[C@H]3C(=O)C=C4[C@@H]5C[C@@](C)(C(=O)O)CC[C@]5(C)CC[C@@]4(C)[C@]3(C)CC[C@@H]12 [GLYCYRRHIZIN] | – | – | – | 2.2 | – | – | – |
| C=C(CC[C@@H](C)[C@H]1CC[C@@]2(C)[C@@H]3CC[C@H]4[C@H](C)[C@@H](O)CC[C@@]45C[C@@]35CC[C@]12C)C(C)C [CYCLOEUCALENOL] | 8.9 | 70 | 94.8 | 1.7 | 26.5 | 0 | 68.1 |
| CC1(C)N([O])C(c2ccc(C(=O)O)cc2)=[N+]([O-])C1(C)C | – | – | – | 8 | – | – | – |

Now from value to molecule, other results behind:

| IC50 [1] [nM] | SMILES | Activity [2] [%] | level, % of control at 0.00032 µM [3] [%] | Activity [4] | level, % of control at 0.032 µM [5] [%] | level, % of control at 0.32 µM [6] [%] | level, % of control at 0.0032 µM [7] [%] |
| --- | --- | --- | --- | --- | --- | --- | --- |
| 9.5 | COC(C)(C)[C@@H](O)CC[C@@H](C)[C@H]1CC[C@@]2(C)[C@@H]3CC[C@H]4C(C)(C)[C@@H](O)CC[C@@]45C[C@@]35CC[C@]12C | 70 | 95.9 | 1.8 | 30.7 | 0 | 74.5 |
| 9 | CC(C)C(=O)CC[C@@H](C)[C@H]1CC[C@@]2(C)[C@@H]3CC[C@H]4C(C)(C)C(=O)CC[C@@]45C[C@@]35CC[C@]12C | 70 | 96.3 | 1.9 | 24 | 0 | 72.1 |
| 8.8 | C=C(C)[C@@H](CC)CC[C@@H](C)[C@H]1CC[C@@]2(C)[C@@H]3CC[C@H]4C(C)(C)[C@@H](O)CC[C@@]45C[C@@]35CC[C@]12C [POLYSTHICOL (24S)] | 70 | 93.1 | 2 | 28.9 | 0 | 69.1 |
| 9.3 | C=C(C)C(=O)CC[C@@H](C)[C@H]1CC[C@@]2(C)[C@@H]3CC[C@H]4C(C)(C)[C@@H](O)CC[C@@]45C[C@@]35CC[C@]12C | 70 | 97.8 | 1.4 | 25.4 | 1.5 | 73.1 |
| 7.4 | C[C@H](CCC(O)C(C)(C)O)[C@H]1CC[C@@]2(C)[C@@H]3CC[C@H]4C(C)(C)C(=O)CC[C@@]45C[C@@]35CC[C@]12C (stereo not given in full) | 70 | 88.4 | 2 | 19.1 | 0 | 66.8 |
| 8.8 | CC(C)=CCC[C@@H](C)[C@H]1CC[C@@]2(C)[C@@H]3CC[C@H]4C(C)(C)C(=O)CC[C@@]45C[C@@]35CC[C@]12C [CYCLOARTENONE] | 70 | 92.6 | 1.5 | 24.6 | 2.3 | 71.3 |
| 8.6 | C=C(C)C(O)CC[C@@H](C)[C@H]1CC[C@@]2(C)[C@@H]3CC[C@H]4C(C)(C)C(=O)CC[C@@]45C[C@@]35CC[C@]12C (stereo not given in full) | 70 | 91.2 | 2 | 21.1 | 0 | 69.7 |
| 8.9 | C=C(C)[C@@H](C)CC[C@@H](C)[C@H]1CC[C@@]2(C)[C@@H]3CC[C@H]4C(C)(C)[C@@H](O)CC[C@@]45C[C@@]35CC[C@]12C [CYCLOLAUDENOL (24S)] | 70 | 93.6 | 1.8 | 30.6 | 0 | 70 |
